Measured values as given in patent publication US20220313698A1, “MODULATORS OF CYSTIC FIBROSIS TRANSMEMBRANE CONDUCTANCE REGULATOR” (Vertex Pharmaceuticals Incorporated, priority 2019, published 2022).

Target: CFTR-mediated chloride transport (Homo sapiens, UniProt P13569)
Experiment: Corrector Assay A - membrane potential dye assay (enteroid cells)
Conditions: for Corrector Assay A % activity: % of chloride transport of triple combination control (1 μM (14S)-dispiro macrocycle + 3 μM tezacaftor + 300 nM ivacaftor); for EC50: read-out: Corrector Assay A EC50, human intestinal enteroid cells, 18-24 h incubation, acute 10 μM forskolin + 300 nM ivacaftor
Protocol: Base medium (ADF+++) consisted of Advanced DMEM/Ham's F12, 2 mM Glutamax, 10 mM HEPES, 1 μg/ml penicillin/streptomycin.
Intestinal enteroid maintenance medium (IEMM) consisted of ADF+++, 1×B27 supplement, 1×N2 supplement, 1.25 mM N-acetyl cysteine, 10 mM Nicotinamide, 50 ng/mL hEGF, 10 nM Gastrin, 1 μg/mL hR-spondin-1, 100 ng/mL hNoggin, TGF-b type 1 inhibitor A-83-01, 100 μg/mL Primocin, 10 μM P38 MAPK inhibitor SB202190.
Bath 1 Buffer consisted of 1 mM MgCl2, 160 mM NaCl, 4.5 mM KCl, 10 mM HEPES, 10 mM Glucose, 2 mM CaCl2).
Chloride Free Buffer consisted of 1 mM Magnesium Gluconate, 2 mM Calcium Gluconate, 4.5 mM Potassium Gluconate, 160 mM Sodium Gluconate, 10 mM HEPES, 10 mM Glucose.
Bath 1 Dye Solution consisted of Bath 1 Buffer, 0.04% Pluronic F127, 20 μM Methyl Oxonol, 30 μM CaCCinh-A01, 30 μM Chicago Sky Blue.
Chloride Free Dye Solution consisted of Chloride Free Buffer, 0.04% Pluronic F127, 20 μM Methyl Oxonol, 30 μM CaCCinh-A01, 30 μM Chicago Sky Blue.
Chloride Free Dye Stimulation Solution consisted of Chloride Free Dye Solution, 10 μM forskolin, 100 μM IBMX, and 300 nM Ivacaftor.
Cells were recovered in cell recovery solution, collected by centrifugation at 650 rpm for 5 min at 4° C., resuspended in TryPLE and incubated for 5 min at 37° C. Cells were then collected by centrifugation at 650 rpm for 5 min at 4° C. and resuspended in IEMM containing 10 μM ROCK inhibitor (RI). The cell suspension was passed through a 40 μm cell strainer and resuspended at 1×10^6 cells/mL in IEMM containing 10 μM RI. Cells were seeded at 5000 cells/well into multi-well plates and incubated for overnight at 37° C., 95% humidity and 5% CO2 prior to assay.
Briefly, cells were washed 5 times in Bath 1 Buffer. Bath 1 Dye Solution was added and the cells were incubated for 25 min at room temperature. Following dye incubation, cells were washed 3 times in Chloride Free Dye Solution. Chloride transport was initiated by addition of Chloride Free Dye Stimulation Solution and the fluorescence signal was read for 15 min. The CFTR-mediated chloride transport for each condition was determined from the AUC of the fluorescence response to acute forskolin and 300 nM N-[2,4-bis(1,1-dimethylethyl)-5-hydroxyphenyl]-1,4-dihydro-4-oxoquinoline-3-carboxamide stimulation. Chloride transport was then expressed as a percentage of the chloride transport following treatment with 1 μM (14S)-8-[3-(2-{Dispiro[2.0.2.1]heptan-7-yl}ethoxy)-1H-pyrazol-1-yl]-12,12-dimethyl-2λ^6-thia-3,9,11,18,23-pentaazatetracyclo[17.3.1.111,14.05,10]tetracosa-1(22),5,7,9,19(23),20-hexaene-2,2,4-trione, 3 μM (R)-1-(2,2-difluorobenzo[d][1,3]dioxol-5-yl)-N-(1-(2,3-dihydroxypropyl)-6-fluoro-2-(1-hydroxy-2-methylpropan-2-yl)-1H-indol-5-yl)cyclopropanecarboxamide and 300 nM acute N-[2,4-bis(1,1-dimethylethyl)-5-hydroxyphenyl]-1,4-dihydro-4-oxoquinoline-3-carboxamide triple combination control (% Activity).

Row | SMILES | Corrector Assay A % activity | EC50
1 | CC(C)(C)c1ccc2c(n1)N1C[C@@H](CCC(c3ccc(CCC#N)cn3)Nc3cccc(n3)S(=O)(=O)NC2=O)CC1(C)C (stereo partly drawn) [Compound 146, 3-{6-[(14S)-8-tert-butyl-12,12-dimethyl-2,2,4-trioxo-2λ^6-thia-3,9,11,18,23-pentaazatetracyclo[17.3.1.111,14.05,10]tetracosa-1(23),5(10),6,8,19,21-hexaen-17-yl]pyridin-3-yl}propanenitrile] | +++ (+++ is >60%) | < 1 µM
2 | CC(C)(C)CCOc1cccc(-c2ccc3c(n2)N2C[C@@H](CC[C@H](c4cc(C(C)(C)C)ccn4)Nc4cccc(n4)S(=O)(=O)NC3=O)CC2(C)C)n1 [Compound 303, (14S,17R)-17-(4-tert-butylpyridin-2-yl)-8-[6-(3,3-dimethylbutoxy)pyridin-2-yl]-12,12-dimethyl-2λ^6-thia-3,9,11,18,23-pentaazatetracyclo[17.3.1.111,14.05,10]tetracosa-1(22),5,7,9,19(23),20-hexaene-2,2,4-trione] | +++ (+++ is >60%) | < 1 µM
3 | CC(C)(C)c1ccc2c(n1)N1C[C@@H](CCC(c3ccc(N4CCOCC4)cn3)Nc3cccc(n3)S(=O)(=O)NC2=O)CC1(C)C (stereo partly drawn) [Compound 198] | +++ (+++ is >60%) | < 1 µM
4 | CC(=O)N1CCC(C2CC[C@@H]3CN(c4nc(C(C)(C)C)ccc4C(=O)NS(=O)(=O)c4cccc(n4)N2)C(C)(C)C3)CC1 (stereo partly drawn) [Compound 228, (14S)-17-(1-Acetylpiperidin-4-yl)-8-tert-butyl-12,12-dimethyl-2λ^6-thia-3,9,11,18,23-pentaazatetracyclo[17.3.1.111,14.05,10]tetracosa-1(23),5(10),6,8,19,21-hexaene-2,2,4-trione] | ++ (++ is 30-60%) | < 1 µM
5 | CC(C)COc1cc(F)cc(-c2ccc3c(n2)N2C[C@@H](CCC(c4ccccn4)Nc4cccc(n4)S(=O)(=O)NC3=O)CC2(C)C)c1 (single isomer, unassigned) [Compound 351] | +++ (+++ is >60%) | < 1 µM
6 | CC1(C)CCC(c2ccc3c(n2)N2C[C@@H](CC[C@H](c4ccccn4)Nc4cccc(n4)S(=O)(=O)NC3=O)CC2(C)C)CC1 [Compound 326] | +++ (+++ is >60%) | < 1 µM
7 | CC(C)(C)c1ccc2c(n1)N1C[C@@H](CCC(c3ccc(C4CCOCC4)cn3)Nc3cccc(n3)S(=O)(=O)NC2=O)CC1(C)C (stereo partly drawn) [Compound 156] | ++ (++ is 30-60%) | < 1 µM
8 | CC(C)(C)c1ccc2c(n1)N1C[C@@H](CC[C@H](c3cc(C(F)(F)F)ccn3)Nc3cccc(n3)S(=O)(=O)NC2=O)CC1(C)C (single isomer, unassigned) [Compound 93] | +++ (+++ is >60%) | < 1 µM
9 | CC(C)(C)c1ccnc(C2CC[C@@H]3CN(c4nc(C(C)(C)C)ccc4C(=O)NS(=O)(=O)c4cccc(n4)N2)C(C)(C)C3)c1 (single isomer, unassigned) [Compound 75] | +++ (+++ is >60%) | < 1 µM
10 | Cc1ccc2cc3c(nc2c1)N1C[C@@H](CC[C@@H](c2cc(C(C)(C)C)ccn2)Nc2cccc(n2)S(=O)(=O)NC3=O)CC1(C)C (single isomer, unassigned) [Compound 7] | +++ (+++ is >60%) | < 1 µM
11 | CC1(C)CC(C2CC[C@@H]3CN(c4nc(C(C)(C)C)ccc4C(=O)NS(=O)(=O)c4cccc(n4)N2)C(C)(C)C3)CC(C)(C)O1 (single isomer, unassigned) [Compound 42] | ++ (++ is 30-60%) | < 1 µM
12 | CC(C)(C)c1cccc(C2CC[C@@H]3CN(c4nc(C(C)(C)C)ccc4C(=O)NS(=O)(=O)c4cccc(n4)N2)C(C)(C)C3)n1 (single isomer, unassigned) [Compound 178] | + (+ is <30%) | < 1 µM
13 | CC(C)(C)c1ccc2c(n1)N1CC(CCCOc3cccc(c3)S(=O)(=O)NC2=O)CC1(C)C (single isomer, unassigned) [Compound 256, 8-tert-butyl-12,12-dimethyl-18-oxa-2λ^6-thia-3,9,11-triazatetracyclo[17.3.1.111,14.05,10]tetracosa-1(22),5,7,9,19(23),20-hexaene-2,2,4-trione] | ++ (++ is 30-60%) | < 1 µM
14 | CC(C)(C)c1ccc2c(n1)N1C[C@@H](CC[C@H](c3cccc(CN)n3)Nc3cccc(n3)S(=O)(=O)NC2=O)CC1(C)C [Compound 203, (14S,17R)-17-[6-(aminomethyl)pyridin-2-yl]-8-tert-butyl-12,12-dimethyl-2λ^6-thia-3,9,11,18,23-pentaazatetracyclo[17.3.1.111,14.05,10]tetracosa-1(22),5,7,9,19(23),20-hexaene-2,2,4-trione] | +++ (+++ is >60%) | < 1 µM
15 | CC(C)(C)c1ccc2c(n1)N1CC(CC1(C)C)OCCNc1cccc(n1)S(=O)(=O)NC2=O (single isomer, unassigned) [Compound 259, 8-tert-Butyl-12,12-dimethyl-15-oxa-2λ^6-thia-3,9,11,18,23-pentaazatetracyclo[17.3.1.111,14.05,10]tetracosa-1(22),5(10),6,8,19(23),20-hexaene-2,2,4-trione] | ++ (++ is 30-60%) | < 1 µM
16 | CC1(C)C[C@@H]2CC[C@H](c3ccccn3)Nc3cccc(n3)S(=O)(=O)NC(=O)c3ccc(Cc4ccccc4)nc3N1C2 [Compound 159] | +++ (+++ is >60%) | < 1 µM
17 | CN(C)Cc1cccc([C@H]2CC[C@@H]3CN(c4nc(C(C)(C)C)ccc4C(=O)NS(=O)(=O)c4cccc(n4)N2)C(C)(C)C3)n1 [Compound 99] | ++ (++ is 30-60%) | < 1 µM
18 | CN(C)CC(=O)N1CCC(C2CC[C@@H]3CN(c4nc(C(C)(C)C)ccc4C(=O)NS(=O)(=O)c4cccc(n4)N2)C(C)(C)C3)CC1 (stereo partly drawn) [Compound 236, (14S)-8-tert-butyl-17-{1-[2-(dimethylamino)acetyl]piperidin-4-yl}-12,12-dimethyl-2λ^6-thia-3,9,11,18,23-pentaazatetracyclo[17.3.1.111,14.05,10]tetracosa-1(23),5(10),6,8,19,21-hexaene-2,2,4-trione] | ++ (++ is 30-60%) | 1 to 3 µM
19 | CC(C)N1CCN(c2ccc3c(n2)N2C[C@@H](CC[C@H](c4ccccn4)Nc4cccc(n4)S(=O)(=O)NC3=O)CC2(C)C)C1=O [Compound 332] | +++ (+++ is >60%) | 1 to 3 µM
20 | CC(C)(C)c1ccc2c(n1)N1C[C@@H](CC[C@@H](c3cc(C4=CCOCC4)ccn3)Nc3cccc(n3)S(=O)(=O)NC2=O)CC1(C)C (single isomer, unassigned) [Compound 126] | +++ (+++ is >60%) | < 1 µM

Next, values leading:

Row | Corrector Assay A % activity | EC50 | SMILES
21 | +++ (+++ is >60%) | < 1 µM | CC(C)(C)c1ccc2c(n1)N1C[C@@H](CCC(c3ccc(C#N)cn3)Nc3cccc(n3)S(=O)(=O)NC2=O)CC1(C)C (stereo partly drawn) [Compound 204]
22 | +++ (+++ is >60%) | < 1 µM | CC(C)(C)c1ccc2c(n1)N1C[C@@H](CCC(c3ccc(-c4cc[nH]n4)cn3)Nc3cccc(n3)S(=O)(=O)NC2=O)CC1(C)C (stereo partly drawn) [Compound 129]
23 | +++ (+++ is >60%) | < 1 µM | Cn1cc(C2CC[C@@H]3CN(c4nc(C(C)(C)C)ccc4C(=O)NS(=O)(=O)c4cccc(n4)N2)C(C)(C)C3)cn1 (single isomer, unassigned) [Compound 281]
24 | + (+ is <30%) | < 1 µM | CC(C)(C)c1ccc2c(n1)N1C[C@@H](CC[C@@H](c3cccc(CCCN)n3)Nc3cccc(n3)S(=O)(=O)NC2=O)CC1(C)C [Compound 133]
25 | +++ (+++ is >60%) | < 1 µM | CC(C)c1ccc(-c2ccc3c(n2)N2C[C@@H](CC[C@H](c4ccccn4)Nc4cccc(n4)S(=O)(=O)NC3=O)CC2(C)C)cc1 [Compound 347]
26 | +++ (+++ is >60%) | < 1 µM | CC(C)(C)c1ccc(C2CC[C@@H]3CN(c4nc(C(C)(C)C)ccc4C(=O)NS(=O)(=O)c4cccc(n4)N2)C(C)(C)C3)nc1 (single isomer, unassigned) [Compound 186]
27 | +++ (+++ is >60%) | < 1 µM | CN(C)Cc1ccc(C2CC[C@@H]3CN(c4nc(C(C)(C)C)ccc4C(=O)NS(=O)(=O)c4cccc(n4)N2)C(C)(C)C3)nc1 (stereo partly drawn) [Compound 102]
28 | + (+ is <30%) | > 3 µM | CC(C)(C)c1ccc2c(n1)N1C[C@@H](CCC(CCC(C3CC3)C3CC3)Nc3cccc(n3)S(=O)(=O)NC2=O)CC1(C)C (single isomer, unassigned) [Compound 51]
29 | +++ (+++ is >60%) | < 1 µM | CC(C)(C)c1ccc2c(n1)N1C[C@@H](CC[C@@H](c3cc(-c4cc[nH]n4)ccn3)Nc3cccc(n3)S(=O)(=O)NC2=O)CC1(C)C (single isomer, unassigned) [Compound 73]
30 | ++ (++ is 30-60%) | < 1 µM | CN(C)Cc1ccnc([C@@H]2CC[C@@H]3CN(c4nc(C(C)(C)C)ccc4C(=O)NS(=O)(=O)c4cccc(n4)N2)C(C)(C)C3)c1 (single isomer, unassigned) [Compound 86]
31 | + (+ is <30%) | > 3 µM | CC(C)(C)c1ccc2c(n1)N1C[C@@H](CCC(c3ncccc3Cl)Nc3cccc(n3)S(=O)(=O)NC2=O)CC1(C)C (single isomer, unassigned) [Compound 66]
32 | +++ (+++ is >60%) | < 1 µM | CC(C)(C)c1ccc([C@@H]2CC[C@@H]3CN(c4nc(C(C)(C)C)ccc4C(=O)NS(=O)(=O)c4cccc(n4)N2)C(C)(C)C3)cc1 (single isomer, unassigned) [Compound 38]
33 | ++ (++ is 30-60%) | < 1 µM | CC(C)(C)c1ccc2c(n1)N1C[C@@H](CCC(c3ccccc3)n3ccc(n3)S(=O)(=O)NC2=O)CC1(C)C (single isomer, unassigned) [Compound 275]
